Where two headings read alike, the source gives them in different places.
Biological target: T1, recombinant human NaV1.8 stably transfected HEK cells (Homo sapiens, UniProt Q9Y5Y9)
T1 construct: expressed in transfected cells; host or cells: HEK cells, stably transfected
Assay: Compound profiling on NaV1.8, human NaV1.8 cell line, SyncroPatch384PE automated patch clamp assay (Example 102, first set of compounds, Table 16)
Type: cell-based
Conditions: human NaV1.8 HEK cells, Table 16 (first set of compounds)
Method in brief: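 Automated whole-cell patch clamp on HEK cells precultured at 30 °C one day before recording; CsF-based internal, 140 mM NaCl external. 10-point curve, 20–0.001 μM final, 0.1% DMSO, 5 min exposure. IC50 for resting (P1, −120 mV hold) and inactivated (P2, after 10 s at −40 mV) block, normalized to 250 μM tetracaine and DMSO.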

[1] = inactivated state block (P2 measurement), read-out: P2IC50
[2] = resting state block (P1 measurement), read-out: P1IC50

T1 sequence (Q9Y5Y9 whole entry): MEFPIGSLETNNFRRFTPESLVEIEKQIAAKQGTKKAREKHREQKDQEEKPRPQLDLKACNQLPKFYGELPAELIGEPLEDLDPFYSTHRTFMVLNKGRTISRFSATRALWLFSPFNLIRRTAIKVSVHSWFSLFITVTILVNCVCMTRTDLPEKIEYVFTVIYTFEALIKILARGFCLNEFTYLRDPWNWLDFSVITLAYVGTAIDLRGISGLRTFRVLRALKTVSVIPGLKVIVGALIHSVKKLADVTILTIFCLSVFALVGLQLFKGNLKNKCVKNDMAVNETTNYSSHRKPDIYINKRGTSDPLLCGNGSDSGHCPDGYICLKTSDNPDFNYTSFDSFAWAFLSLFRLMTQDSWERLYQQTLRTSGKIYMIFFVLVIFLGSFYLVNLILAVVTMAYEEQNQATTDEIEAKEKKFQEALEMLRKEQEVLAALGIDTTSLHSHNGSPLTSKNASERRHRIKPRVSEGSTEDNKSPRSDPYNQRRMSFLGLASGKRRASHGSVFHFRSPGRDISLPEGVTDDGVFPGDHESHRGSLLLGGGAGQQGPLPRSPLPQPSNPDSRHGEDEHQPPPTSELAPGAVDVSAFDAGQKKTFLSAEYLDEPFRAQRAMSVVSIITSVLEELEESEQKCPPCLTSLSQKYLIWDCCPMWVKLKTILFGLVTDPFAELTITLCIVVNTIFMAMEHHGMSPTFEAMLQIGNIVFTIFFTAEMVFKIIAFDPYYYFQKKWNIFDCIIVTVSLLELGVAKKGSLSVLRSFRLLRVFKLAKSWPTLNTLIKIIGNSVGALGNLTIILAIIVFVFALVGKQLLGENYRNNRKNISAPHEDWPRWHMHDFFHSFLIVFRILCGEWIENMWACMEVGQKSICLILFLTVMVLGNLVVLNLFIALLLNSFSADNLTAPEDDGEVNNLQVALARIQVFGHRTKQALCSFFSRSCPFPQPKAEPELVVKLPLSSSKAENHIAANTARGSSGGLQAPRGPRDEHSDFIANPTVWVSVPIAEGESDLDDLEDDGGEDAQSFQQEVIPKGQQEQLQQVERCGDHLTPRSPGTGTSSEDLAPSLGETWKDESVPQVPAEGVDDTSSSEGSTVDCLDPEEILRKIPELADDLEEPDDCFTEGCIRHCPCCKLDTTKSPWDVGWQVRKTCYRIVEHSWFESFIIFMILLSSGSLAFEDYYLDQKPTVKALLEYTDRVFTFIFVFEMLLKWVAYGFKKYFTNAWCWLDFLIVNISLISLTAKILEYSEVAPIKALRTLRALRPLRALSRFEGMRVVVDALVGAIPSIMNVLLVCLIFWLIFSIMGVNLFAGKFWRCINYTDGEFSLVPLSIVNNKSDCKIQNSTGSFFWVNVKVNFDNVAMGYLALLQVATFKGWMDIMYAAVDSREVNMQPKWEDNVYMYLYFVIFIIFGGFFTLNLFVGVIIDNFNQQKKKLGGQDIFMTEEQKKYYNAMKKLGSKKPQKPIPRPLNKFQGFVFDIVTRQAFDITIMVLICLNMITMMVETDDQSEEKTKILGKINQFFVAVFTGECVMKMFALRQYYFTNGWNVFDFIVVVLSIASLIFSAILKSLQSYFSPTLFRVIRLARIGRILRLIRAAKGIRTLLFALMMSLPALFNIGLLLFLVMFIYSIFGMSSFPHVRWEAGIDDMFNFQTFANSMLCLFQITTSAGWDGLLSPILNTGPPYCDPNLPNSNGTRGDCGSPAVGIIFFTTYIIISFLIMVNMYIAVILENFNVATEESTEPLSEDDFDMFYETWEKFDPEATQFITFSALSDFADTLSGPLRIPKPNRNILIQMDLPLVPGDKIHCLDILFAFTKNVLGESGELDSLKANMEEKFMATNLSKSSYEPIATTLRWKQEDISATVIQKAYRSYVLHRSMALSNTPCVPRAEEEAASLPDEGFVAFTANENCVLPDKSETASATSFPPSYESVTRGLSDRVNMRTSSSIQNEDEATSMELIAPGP

| IC50 [1] [nM] | IC50 [2] [nM] | Compound |
| --- | --- | --- |
| 20 to 40 | 20 to 40 | COc1cc(C#N)ccc1Oc1nnc(-c2ccc(C#N)cc2)c(C)c1C(=O)Nc1cccc(S(C)(=N)=O)c1 (stereo not drawn) [Compound 1446, 3-(4-cyano-2-methoxy-phenoxy)-6-(4-cyanophenyl)-5-methyl-N-[3-(methylsulfonimidoyl)phenyl]pyridazine-4-carboxamide] |
| 20 to 40 | 20 to 40 | COc1cc(C#N)ccc1Oc1nnc(-c2cncn2C)c(C)c1C(=O)Nc1cccc(S(C)(=N)=O)c1 (stereo not drawn) [Compound 1447, 3-(4-cyano-2-methoxy-phenoxy)-5-methyl-6-(3-methylimidazol-4-yl)-N-[3-(methylsulfonimidoyl)phenyl]pyridazine-4-carboxamide] |
| 200 to 500 | 200 to 500 | COc1cc(C#N)ccc1Oc1nnc(-c2ccn(C)n2)c(C)c1C(=O)Nc1cccc(S(C)(=N)=O)c1 (stereo not drawn) [Compound 1448, 3-(4-cyano-2-methoxy-phenoxy)-5-methyl-6-(1-methylpyrazol-3-yl)-N-[3-(methylsulfonimidoyl)phenyl]pyridazine-4-carboxamide] |
| 200 to 500 | 200 to 500 | COc1cc(C#N)ccc1Oc1nnc(-c2cnc(C)s2)c(C)c1C(=O)Nc1cccc(S(C)(=N)=O)c1 (stereo not drawn) [Compound 1449, 3-(4-cyano-2-methoxy-phenoxy)-5-methyl-N-[3-(methylsulfonimidoyl)phenyl]-6-(2-methylthiazol-5-yl)pyridazine-4-carboxamide] |
| ≤ 20 | ≤ 20 | COc1cc(C#N)ccc1Oc1nnc(-c2ccc(C)cc2)c(C)c1C(=O)Nc1cccc(S(C)(=N)=O)c1 (stereo not drawn) [Compound 1450, 3-(4-cyano-2-methoxy-phenoxy)-5-methyl-N-[3-(methylsulfonimidoyl)phenyl]-6-(p-tolyl)pyridazine-4-carboxamide] |
| 200 to 500 | 200 to 500 | COc1cc(C#N)ccc1Oc1nnc(-c2cccc(C#N)c2)c(C)c1C(=O)Nc1cccc(S(C)(=N)=O)c1 (stereo not drawn) [Compound 1451, 3-(4-cyano-2-methoxy-phenoxy)-6-(3-cyanophenyl)-5-methyl-N-[3-(methylsulfonimidoyl)phenyl]pyridazine-4-carboxamide] |
| ≤ 20 | ≤ 20 | COc1cc(C#N)ccc1Oc1nnc(-c2ccc(C(F)F)cc2)c(C)c1C(=O)Nc1cccc(S(C)(=N)=O)c1 (stereo not drawn) [Compound 1453, 3-(4-cyano-2-methoxy-phenoxy)-6-[4-(difluoromethyl)phenyl]-5-methyl-N-[3-(methylsulfonimidoyl)phenyl]pyridazine-4-carboxamide] |
| ≤ 20 | ≤ 20 | COc1ccc(-c2nnc(Oc3ccc(C#N)cc3OC)c(C(=O)Nc3cccc(S(C)(=N)=O)c3)c2C)cc1 (stereo not drawn) [Compound 1454, 3-(4-cyano-2-methoxy-phenoxy)-6-(4-methoxyphenyl)-5-methyl-N-[3-(methylsulfonimidoyl)phenyl]pyridazine-4-carboxamide] |
| 200 to 500 | 200 to 500 | COc1cc(C#N)ccc1Oc1nnc(-c2ccc(C)nc2)c(C)c1C(=O)Nc1cccc(S(C)(=N)=O)c1 (stereo not drawn) [Compound 1455, 3-(4-cyano-2-methoxy-phenoxy)-5-methyl-6-(6-methyl-3-pyridyl)-N-[3-(methylsulfonimidoyl)phenyl]pyridazine-4-carboxamide] |
| 200 to 500 | 200 to 500 | COc1cc(C#N)ccc1Oc1nnc(-c2ccnnc2)c(C)c1C(=O)Nc1cccc(S(C)(=N)=O)c1 (stereo not drawn) [Compound 1456, 3-(4-cyano-2-methoxy-phenoxy)-5-methyl-N-[3-(methylsulfonimidoyl)phenyl]-6-pyridazin-4-yl-pyridazine-4-carboxamide] |
| 200 to 500 | 200 to 500 | COc1cc(C#N)ccc1Oc1nnc(-c2cnc(C)nc2)c(C)c1C(=O)Nc1cccc(S(C)(=N)=O)c1 (stereo not drawn) [Compound 1457, 3-(4-cyano-2-methoxy-phenoxy)-5-methyl-6-(2-methylpyrimidin-5-yl)-N-[3-(methylsulfonimidoyl)phenyl]pyridazine-4-carboxamide] |
| 200 to 500 | 200 to 500 | COc1cc(C#N)ccc1Oc1nnc(-c2ccccn2)c(C)c1C(=O)Nc1cccc(S(C)(=N)=O)c1 (stereo not drawn) [Compound 1458, 3-(4-cyano-2-methoxyphenoxy)-5-methyl-N-(3-(S-methylsulfonimidoyl)phenyl)-6-(pyridin-2-yl)pyridazine-4-carboxamide] |
| 200 to 500 | 200 to 500 | COc1cc(C#N)ccc1Oc1nnc(-c2cncs2)c(C)c1C(=O)Nc1cccc(S(C)(=N)=O)c1 (stereo not drawn) [Compound 1460, 3-(4-cyano-2-methoxy-phenoxy)-5-methyl-N-[3-(methylsulfonimidoyl)phenyl]-6-thiazol-5-yl-pyridazine-4-carboxamide] |
| 200 to 500 | 200 to 500 | COc1cc(C#N)ccc1Oc1nnc(-c2ncco2)c(C)c1C(=O)Nc1cccc(S(C)(=N)=O)c1 (stereo not drawn) [Compound 1462, 3-(4-cyano-2-methoxy-phenoxy)-5-methyl-N-[3-(methylsulfonimidoyl)phenyl]-6-oxazol-2-yl-pyridazine-4-carboxamide; formic acid] |
| ≤ 20 | ≤ 20 | COc1cc(C#N)ccc1Oc1nnc(-c2nccs2)c(C)c1C(=O)Nc1cccc(S(C)(=N)=O)c1 (stereo not drawn) [Compound 1463, 3-(4-cyano-2-methoxy-phenoxy)-5-methyl-N-[3-(methylsulfonimidoyl)phenyl]-6-thiazol-2-yl-pyridazine-4-carboxamide] |
| 200 to 500 | 200 to 500 | COc1cc(C#N)ccc1Oc1nnc(-c2ccc(C)cn2)c(C)c1C(=O)Nc1cccc(S(C)(=N)=O)c1 (stereo not drawn) [Compound 1464, 3-(4-cyano-2-methoxy-phenoxy)-5-methyl-6-(5-methyl-2-pyridyl)-N-[3-(methylsulfonimidoyl)phenyl]pyridazine-4-carboxamide] |

Continued, compound first:

| Compound | IC50 [1] [nM] | IC50 [2] [nM] |
| --- | --- | --- |
| COc1cc(C#N)ccc1Oc1nnc(C(F)(F)F)c(C)c1C(=O)Nc1cccc(C(=O)N2CCNCC2)c1 [Compound 1438, 3-(4-cyano-2-methoxy-phenoxy)-5-methyl-N-[3-(piperazine-1-carbonyl)phenyl]-6-(trifluoromethyl)pyridazine-4-carboxamide] | 40 to 200 | 40 to 200 |
| COCCNS(=O)(=O)c1cccc(NC(=O)c2c(Oc3ccc(C#N)cc3OC)nnc(C(F)(F)F)c2C)c1 [Compound 1439, 3-(4-cyano-2-methoxy-phenoxy)-N-[3-(2-methoxyethylsulfamoyl)phenyl]-5-methyl-6-(trifluoromethyl)pyridazine-4-carboxamide] | 40 to 200 | 40 to 200 |
| COc1cc(C#N)ccc1Oc1nnc(C(F)(F)F)c(C)c1C(=O)Nc1cccc(C(=O)NCC2(F)CC2)c1 [Compound 1440, 3-(4-cyano-2-methoxy-phenoxy)-N-[3-[(1-fluorocyclopropyl)methylcarbamoyl]phenyl]-5-methyl-6-(trifluoromethyl)pyridazine-4-carboxamide] | 200 to 500 | 200 to 500 |
| COc1cc(C#N)ccc1Oc1nnc(C(F)(F)F)c(C)c1C(=O)Nc1cccc(C(=O)NCCO)c1 [Compound 1441, 3-(4-cyano-2-methoxy-phenoxy)-N-[3-(2-hydroxyethylcarbamoyl)phenyl]-5-methyl-6-(trifluoromethyl)pyridazine-4-carboxamide] | 200 to 500 | 200 to 500 |
| COc1cc(C#N)ccc1Oc1nnc(C(F)(F)F)c(C)c1C(=O)Nc1cccc(C(=O)N2CC(C#N)C2)c1 [Compound 1442, N-[3-(3-cyanoazetidine-1-carbonyl)phenyl]-3-(4-cyano-2-methoxy-phenoxy)-5-methyl-6-(trifluoromethyl)pyridazine-4-carboxamide] | 200 to 500 | 200 to 500 |
| COCCNC(=O)c1cccc(NC(=O)c2c(Oc3ccc(C#N)cc3OC)nnc(C(F)(F)F)c2C)c1 [Compound 1443, 3-(4-cyano-2-methoxy-phenoxy)-N-[3-(2-methoxyethylcarbamoyl)phenyl]-5-methyl-6-(trifluoromethyl)pyridazine-4-carboxamide] | 200 to 500 | 200 to 500 |
| COc1cc(C#N)ccc1Oc1nnc(C(F)(F)F)c(C)c1C(=O)Nc1cccc(C(=O)NC2CCCC2C(N)=O)c1 (stereo not drawn) [Compound 1444, N-[3-[(2-carbamoylcyclopentyl)carbamoyl]phenyl]-3-(4-cyano-2-methoxy-phenoxy)-5-methyl-6-(trifluoromethyl)pyridazine-4-carboxamide] | 200 to 500 | 200 to 500 |
| COc1cc(C#N)ccc1Oc1nnc(C(F)(F)F)c(C)c1C(=O)Nc1cccc(C(=O)NC2CCCC2C#N)c1 (stereo not drawn) [Compound 1445, N-[3-[(2-cyanocyclopentyl)carbamoyl]phenyl]-3-(4-cyano-2-methoxy-phenoxy)-5-methyl-6-(trifluoromethyl)pyridazine-4-carboxamide] | 200 to 500 | 200 to 500 |
| COc1cc(C#N)ccc1Oc1nnc(-c2ccccc2F)c(C)c1C(=O)Nc1cccc(S(C)(=N)=O)c1 (stereo not drawn) [Compound 1452, 3-(4-cyano-2-methoxy-phenoxy)-6-(2-fluorophenyl)-5-methyl-N-[3-(methylsulfonimidoyl)phenyl]pyridazine-4-carboxamide] | 40 to 200 | 40 to 200 |
| COc1cc(C#N)ccc1Oc1nnc(-c2cnc(C(F)(F)F)s2)c(C)c1C(=O)Nc1cccc(S(C)(=N)=O)c1 (stereo not drawn) [Compound 1459, 3-(4-cyano-2-methoxy-phenoxy)-5-methyl-N-[3-(methylsulfonimidoyl)phenyl]-6-[2-(trifluoromethyl)thiazol-5-yl]pyridazine-4-carboxamide] | ≤ 20 | ≤ 20 |
| COc1ncc(-c2nnc(Oc3ccc(C#N)cc3OC)c(C(=O)Nc3cccc(S(C)(=N)=O)c3)c2C)s1 (stereo not drawn) [Compound 1461, 3-(4-cyano-2-methoxy-phenoxy)-6-(2-methoxythiazol-5-yl)-5-methyl-N-[3-(methylsulfonimidoyl)phenyl]pyridazine-4-carboxamide; formic acid] | 40 to 200 | 200 to 500 |

— US20240336574A1 (LATIGO BIOTHERAPEUTICS, INC., priority 2021, published 2024)
